Common to all, as to type: cell-based, Human
The test system of assay [1] is Caspase 3/7 activities in HT-29 cells. The experiment in a line: Caspase 3/7 activity assay, HT-29. To be noted: HT-29, 72 h. How it is done: (§1) Based on this, the energy restriction mediated anticancer activity of the new coumarin tagged aminothiazole derivatives was investigated. The expression levels of PARP, p-Akt, Akt, p-AMPK, AMPK, β-TrCP, LC3A/B-I, LC3A/B-II, caspase-3, cyclin D1, and Bcl-2 proteins were determined by Western blot analysis after 72 h treatment of HT-29 and HCT116 at different concentrations based on the IC50 values of each compound (Fig. 3A,B). […] Moreover, the treatment with 9b and 9f induced caspase 3/7 activation, which was detected by caspase 3/7 activity assay and confirmed by Western blot. The activation of caspases was significant in 9b in both cell lines and significant with 9f in HCT116 cells only and minimal in HT-29 cells (Fig. 3C,D). On the other hand, both 9b and 9f induced dose-dependent proteolytic processing of PARP. […] Besides, the protein expression level of the anti-apoptotic protein, Bcl-2, was reduced in HCT116 upon treatment with both compounds.
Caspase-3/7 activities in HT-29 and HCT116 cells treated with candidate compounds were measured using Caspase-Glo 3/7 assay kit (Promega, Madison, WI, USA) following the manufacturer’s instructions. […] 50 µL of lysate and 50 µL of caspase substrate were added to a white opaque 96-well plate, and the luminescence was measured by Varioskan Flash multimode reader (Thermo-Scientific, Vantaa, Finland)

The subject of assay [2] is HT-29. The experiment in a line: Glucose uptake assay, HT-29. The settings on record: HT-29, 16 h treatment, dose-dependent. The source says: (§2) According to previous studies, ERMAs inhibited glucose utilization in cancer cells[13],[19]. Therefore, we investigated glucose uptake (Fig. 5A) upon treatment with 9b and 9f in HT-29 and HCT116 cells at different concentrations based on the IC50 of each compound. […] This effect is known to result in the accumulation of reactive oxygen species (ROS) and could play a role in glucose deprivation-induced cytotoxicity and oxidative stress in cancer cells. […] The observed increase in ROS levels could lead to oxidative stress and extensive cell death in the absence of NADPH detoxification.
CRC cells (1 × 10^4) were seeded into a 96-well plate overnight. Cells were treated with test compounds or vehicle (negative control) glucose-free RPMI-1640 medium for 16 h; then, the cells were incubated with 2 mM 2-DG for 10 minutes. Eventually, glucose uptake of cells was measured using Glucose Uptake-Glo Assay (Promega, Madison, WI, USA) according to the manufacturer’s instructions. Luminescence was measured post 2 h of incubation at room temperature using Varioskan Flash multimode reader (Thermo Scientific). Glucose uptake was normalized to the total protein content in the samples using DC protein assay kit (Bio-Rad, Hercules, CA, USA).

Assay [3] relates to HT-29. The experiment in a line: Western blot analysis, HT-29. The settings on record: for expression of LC3A-II and LC3B-II: HT-29 (CRC cell lines); for expression of LC3A-II and LC3B-II / p-mTOR and p-p70S6K levels: 72 h; for AMPK activation through phosphorylation / Akt phosphorylation / PARP cleavage: HT-29, 72 h. How it is done: as §1
Following 72 h of treatment, cells were lysed and the extracted proteins were quantified using DC protein assay kit (Bio-Rad, Hercules, CA, USA) following the manufacturer’s instructions. Proteins were resolved on 8% or 12% SDS-poly-acrylamide gels, then transferred onto a nitrocellulose membrane using a semi-dry transfer cell. The membranes were blocked in TBS-T containing 5% non-fat milk for 1 h and incubated overnight at 4 °C overnight with indicated primary antibodies (Cell Signaling Technologies, Beverly, MA, USA) and then incubated with goat anti-mouse or anti-rabbit secondary antibody (Cell Signaling Technologies, Beverly, MA, USA) for 1 h at room temperature. Detection was done using chemiluminescence substrate (Bio-Rad, Hercules, CA, USA). β-actin (Cell Signaling Technologies, Beverly, MA, USA) was used as a loading control.
The blots were captured with ChemiDoc Imaging System (Bio-Rad, Hercules, CA, USA) and bands were visualized with the Image Lab v5.2.1 software (Bio-Rad, Hercules, CA, USA).
A general note: Immunoblotting shows a protein as a band on a membrane.

Assay [4] deals with HCT116. The experiment in a line: ROS-Glo H2O2 assay, HCT116. The settings on record: HCT116, 6 h incubation.
Excerpt: as §2
NADPH/NADP+ and ROS concentrations were measured using the NADP/NADPH-Glo Assay Kit (Promega, Madison, WI, USA) and ROS-Glo H2O2 Assay (Promega, Madison, WI, USA), respectively, based on the manufacturer instructions. In NADPH/NADP+ assay, CRC cells were seeded into a 96-well flat-bottomed plate and incubated overnight. On the following day, cells were treated with the testing compound or vehicle for 48 h. At the endpoint of treatment, the media were aspirated and replaced with 60 µl PBS/well, then cells were lysed in 60 µl base solution with 1% dodecyl (trimethyl) ammonium bromide (Sigma-Aldrich-St. Louis, MO, USA). […] Luminescence was measured after 30 minutes using Varioskan Flash multimode reader (Thermo Scientific). […] Luminescence was measured after 20 min incubation at room temperature.

`Cc1cc(=O)oc2cc(Nc3nc(-c4ccc(Br)cc4)cs3)ccc12` [Compound 9b, 7-(4-(4-Bromophenyl)thiazol-2-ylamino)-4-methyl-2H-chromen-2-one]: the “activation of caspases (caspase 3/7)” value in assay [1] was “significant”. Also, in assay [2], the glucose uptake entry is “inhibited significantly”. For the same compound, in assay [3], the “expression of LC3A-II and LC3B-II” value is “induced the expression of LC3A-II and LC3B-II”; the “AMPK activation through phosphorylation” value is “enhancement of AMPK activation”; the Akt phosphorylation entry is “inhibition of Akt phosphorylation”; the PARP cleavage result was “induced PARP cleavage”. For the same compound, the “p-mTOR and p-p70S6K levels” value in assay [3] (HT-29, 0.5 µM) is recorded as “initial increase”. Moreover, in assay [3] (HT-29, higher concentrations), the “p-mTOR and p-p70S6K levels” value was “decrease”. In addition, the “generation of hydrogen peroxide (H2O2) and ROS” value in assay [4] is on record as “significantly increased”.
For the compound `Cc1cc(=O)oc2cc(Nc3nc(-c4cccc([N+](=O)[O-])c4)cs3)ccc12` [Compound 9f, 4-Methyl-7-(4-(3-Nitrophenyl)thiazol-2-ylamino)-2H-chromen-2-one], the “activation of caspases (caspase 3/7)” value in assay [1] is on record as “minimal”. Also, the glucose uptake entry in assay [2] is recorded as “inhibited significantly”. Besides, in assay [3], the “expression of LC3A-II and LC3B-II” value was “induced the expression of LC3A-II and LC3B-II”; the “AMPK activation through phosphorylation” value is recorded as “enhancement of AMPK activation”; the Akt phosphorylation result is recorded as “inhibition of Akt phosphorylation”; the PARP cleavage entry is on record as “PARP cleavage only in HT-29 cells at the highest tested dose”. The “p-mTOR and p-p70S6K levels” value in assay [3] (HT-29, higher concentrations) is “decrease”. Also, the “generation of hydrogen peroxide (H2O2) and ROS” value in assay [4] is on record as “significantly increased”.
